Assay results from patent publication US5183743A, “Chromogenic dibenzoxazepinone and dibenzothiazepinone enzyme substrates” (Miles Inc., priority 1991, dated 1993).

What was measured:
β-galactosidase = experiment: enzymatic cleavage of substrate to (20) by β-galactosidase; assay type: biochemical; details: in the presence of β-galactosidase
Procedure: (§1) When dissolved in 50 mM phosphate buffer at pH 7.4 containing 5 mM magnesium chloride (MgCl2) compound (23)+(24) (mixture) had λmax of 454 nm (ε =22,000) and 344 nm (ε =14,000).

[1] = UV/visible absorption in 50 mM phosphate buffer pH 7.4 containing 5 mM MgCl2; assay type: physicochemical; details: 50 mM phosphate buffer pH 7.4, 5 mM MgCl2
Procedure: as §1

[2] = protonated vs deprotonated form; cited from earlier work

Row | Compound | Km (β-galactosidase) | rate (Kcat) of cleavage to (20) (β-galactosidase) | ε at λmax 344 nm ([1]; 344 nm) | ε at λmax 454 nm ([1]; 454 nm) | λmax ([1]; long-wavelength maximum) | λmax ([1]; second maximum) | shift in absorption (λmax) between the protonated form and the deprotonated form [2]
1 | 8-β-D-Galactopyranosyloxy-11-methyl-11H-dibenz[b,e][1,4]oxazepin-1-one(23) and 2-β-D-galactopyranosyloxy-11-methyl-11H-dibenz[b,e][-1,4]oxazepin-8-one (24) [(23)+(24)] | 75 µM | 1.32×10^4 mol. min^-1 /mol. active site | 14,000 | 22,000 | 454 nm | 344 nm | 
2 | CC1Oc2cc(O)ccc2N=C2C=CC(=O)C=C21 (stereo not shown) [(20)] |  |  |  |  |  |  | 122 nm
